pIC50: −log10 of the molar value. Where two headings read alike, the source gives them in different places.
Assays:
Format in all cases: biochemical
[1] = molecular target: T1, PDE9A2 (Homo sapiens, UniProt O76083); assay: Phosphodiesterase enzyme screening assay, PDE9A2; settings: read-out: Band (PDE9A2 IC50)
T1 construct: purchased Reaction Biology Corporation, Malvern, Pa
Outline: (§1)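 Enzyme activity is measured as conversion of fluorescent cGMP (4.0 μM) to 5′-GMP after 1 h at R.T. in pH 7.5 HEPES/MgCl2/DTT buffer. Product is separated from substrate by microfluidic mobility shift, and inhibition is derived by comparison with control wells.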

[2] = molecular target: T2, PDE1A (Homo sapiens, UniProt P54750); assay: Phosphodiesterase enzyme screening assay, PDE1A
T2 construct: purchased Reaction Biology Corporation, Malvern, Pa
Outline: as §1

[3] = molecular target: T3, PDE1B (Homo sapiens, UniProt Q01064); assay: Phosphodiesterase enzyme screening assay, PDE1B
T3 construct: purchased Reaction Biology Corporation, Malvern, Pa
Outline: as §1

[4] = ratio of IC50 values, value greater than 1 indicates greater selectivity for PDE9A2
[5] = ratio of IC50 values, PDE1A versus PDE9A2, value greater than 1 indicates greater selectivity for PDE9A2
[6] = ratio of IC50 values, PDE1B versus PDE9A2, value greater than 1 indicates greater selectivity for PDE9A2
[7] = Table 1, 10 concentrations, 4.0 μM cGMP substrate, 1 hour at R.T.
[8] = Table 1, ratio of IC50 values, value greater than 1 indicates greater selectivity for PDE9A2

T3 sequence (Q01064 whole entry): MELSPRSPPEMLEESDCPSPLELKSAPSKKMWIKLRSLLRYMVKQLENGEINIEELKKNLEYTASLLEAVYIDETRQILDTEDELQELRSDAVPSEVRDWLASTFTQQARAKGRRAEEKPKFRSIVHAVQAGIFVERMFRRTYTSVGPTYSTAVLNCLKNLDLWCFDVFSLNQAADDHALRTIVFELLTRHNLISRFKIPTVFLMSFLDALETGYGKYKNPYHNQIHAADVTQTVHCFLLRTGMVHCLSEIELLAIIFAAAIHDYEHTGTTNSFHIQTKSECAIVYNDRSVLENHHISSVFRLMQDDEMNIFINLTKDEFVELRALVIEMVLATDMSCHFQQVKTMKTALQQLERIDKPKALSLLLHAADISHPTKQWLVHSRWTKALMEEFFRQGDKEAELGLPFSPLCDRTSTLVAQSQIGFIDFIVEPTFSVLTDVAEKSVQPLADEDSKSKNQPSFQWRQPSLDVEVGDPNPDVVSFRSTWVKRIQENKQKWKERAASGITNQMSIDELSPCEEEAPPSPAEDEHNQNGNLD
T2 sequence (P54750 whole entry): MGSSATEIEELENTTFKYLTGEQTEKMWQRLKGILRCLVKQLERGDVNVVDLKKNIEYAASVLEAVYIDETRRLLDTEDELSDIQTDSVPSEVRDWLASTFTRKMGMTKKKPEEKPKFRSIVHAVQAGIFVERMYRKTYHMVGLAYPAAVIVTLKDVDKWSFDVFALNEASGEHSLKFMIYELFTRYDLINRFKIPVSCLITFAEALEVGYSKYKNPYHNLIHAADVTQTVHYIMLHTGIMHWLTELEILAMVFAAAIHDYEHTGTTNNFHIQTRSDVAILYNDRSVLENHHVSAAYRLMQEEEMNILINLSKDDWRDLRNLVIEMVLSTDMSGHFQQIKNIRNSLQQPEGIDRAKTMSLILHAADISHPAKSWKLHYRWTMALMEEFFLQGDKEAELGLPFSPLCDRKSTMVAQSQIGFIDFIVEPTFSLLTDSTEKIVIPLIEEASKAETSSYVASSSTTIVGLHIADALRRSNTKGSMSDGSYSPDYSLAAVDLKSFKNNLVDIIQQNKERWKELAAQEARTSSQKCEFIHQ
T1 sequence (O76083 1-533 isoform O76083-2): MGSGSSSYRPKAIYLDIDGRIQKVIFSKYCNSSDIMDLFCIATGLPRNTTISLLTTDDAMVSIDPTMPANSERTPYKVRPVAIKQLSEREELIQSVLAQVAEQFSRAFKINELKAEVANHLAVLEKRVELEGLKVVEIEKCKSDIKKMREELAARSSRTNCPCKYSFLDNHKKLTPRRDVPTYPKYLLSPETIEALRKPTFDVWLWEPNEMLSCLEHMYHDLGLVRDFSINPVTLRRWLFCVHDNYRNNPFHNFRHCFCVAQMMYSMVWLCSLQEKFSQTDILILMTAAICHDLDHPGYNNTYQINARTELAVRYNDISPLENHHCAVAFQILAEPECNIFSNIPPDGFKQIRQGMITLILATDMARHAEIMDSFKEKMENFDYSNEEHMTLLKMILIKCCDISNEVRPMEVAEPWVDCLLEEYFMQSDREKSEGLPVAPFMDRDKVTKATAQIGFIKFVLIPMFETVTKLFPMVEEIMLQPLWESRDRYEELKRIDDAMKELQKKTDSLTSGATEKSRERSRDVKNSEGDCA

pIC50 [1] | pIC50 [1, 7] | PDE1A selectivity (versus PDE9A2) [2, 8] | PDE1B selectivity (versus PDE9A2) [3, 8] | Structure (SMILES) | further results
> 6.00 | – | – | – | CC1CN(CC2CCOCC2)CC1c1nn2c(C3CCOCC3)ncc2c(=O)[nH]1 (single isomer, unassigned; (+)) [(+)-2-((3,4-trans)-4-methyl-1-((tetrahydro-2H-pyran-4-yl)methyl)pyrrolidin-3-yl)-7-(tetrahydro-2H-pyran-4-yl)imidazo[5,1-f][1,2,4]triazin-4(3H)-one] | PDE1A selectivity (versus PDE9A2) [2, 4]: 77; PDE1B selectivity (versus PDE9A2) [3, 4]: 93
> 6.00 | – | – | – | CC1CN(Cc2ncco2)CC1c1nn2c(C3CCOCC3)ncc2c(=O)[nH]1 (single isomer, unassigned; (+)) [(+)-2-((3,4-trans)-4-methyl-1-(oxazol-2-ylmethyl)pyrrolidin-3-yl)-7-(tetrahydro-2H-pyran-4-yl)imidazo[5,1-f][1,2,4]triazin-4(3H)-one] | PDE1A selectivity (versus PDE9A2) [2, 4]: 81; PDE1B selectivity (versus PDE9A2) [3, 4]: 119
> 6.00 | – | – | – | Cc1ccccc1-c1ncc2c(=O)[nH]c(C3CN(Cc4cnccn4)CC3C)nn12 (single isomer, unassigned; (+)) [(+)-2-((3,4-trans)-4-methyl-1-(pyrazin-2-ylmethyl)pyrrolidin-3-yl)-7-(o-tolyl)imidazo[5,1-f][1,2,4]triazin-4(3H)-one] | PDE1A selectivity (versus PDE9A2) [2, 5]: 387; PDE1B selectivity (versus PDE9A2) [3, 6]: 469
> 6.00 | – | – | – | CC1CN(Cc2cnn3ccccc23)CC1c1nn2c(C3CCOCC3)ncc2c(=O)[nH]1 (single isomer, unassigned; (+)) [(+)-2-((3,4-trans)-4-methyl-1-(pyrazolo[1,5-a]pyridin-3-ylmethyl)pyrrolidin-3-yl)-7-(tetrahydro-2H-pyran-4-yl)imidazo[5,1-f][1,2,4]triazin-4(3H)-one] | PDE1A selectivity (versus PDE9A2) [2, 4]: 3240; PDE1B selectivity (versus PDE9A2) [3, 4]: 1010
– | > 6.00 | 182 | 276 | CC1CN(Cc2cccnn2)CC1c1nn2c(C3CCOCC3)ncc2c(=O)[nH]1 (single isomer, unassigned; (+)) [(+)-2-((3,4-trans)-4-methyl-1-(pyridazin-3-ylmethyl)pyrrolidin-3-yl)-7-(tetrahydro-2H-pyran-4-yl)imidazo[5,1-f][1,2,4]triazin-4(3H)-one] | –
– | > 6.00 | 71 | 99 | CC1CN(Cc2ccnnc2)CC1c1nn2c(C3CCOCC3)ncc2c(=O)[nH]1 (single isomer, unassigned; (+)) [(+)-2-((3,4-trans)-4-methyl-1-(pyridazin-4-ylmethyl)pyrrolidin-3-yl)-7-(tetrahydro-2H-pyran-4-yl)imidazo[5,1-f][1,2,4]triazin-4(3H)-one] | –
> 6.00 | – | – | – | Cc1ccccc1-c1ncc2c(=O)[nH]c(C3CN(Cc4ccccn4)CC3C)nn12 (single isomer, unassigned; (+)) [(+)-2-((3,4-trans)-4-methyl-1-(pyridin-2-ylmethyl)pyrrolidin-3-yl)-7-(o-tolyl)imidazo[5,1-f][1,2,4]triazin-4(3H)-one] | PDE1A selectivity (versus PDE9A2) [2, 5]: 73; PDE1B selectivity (versus PDE9A2) [3, 6]: 148
– | > 6.00 | 373 | 470 | CC1CN(Cc2ccccn2)CC1c1nn2c(C3CCOCC3)ncc2c(=O)[nH]1 (single isomer, unassigned; (+)) [(+)-2-((3,4-trans)-4-methyl-1-(pyridin-2-ylmethyl)pyrrolidin-3-yl)-7-(tetrahydro-2H-pyran-4-yl)imidazo[5,1-f][1,2,4]triazin-4(3H)-one] | –
> 6.00 | – | – | – | Cc1ccccc1-c1ncc2c(=O)[nH]c(C3CN(Cc4cccnc4)CC3C)nn12 (single isomer, unassigned; (+)) [(+)-2-((3,4-trans)-4-methyl-1-(pyridin-3-ylmethyl)pyrrolidin-3-yl)-7-(o-tolyl)imidazo[5,1-f][1,2,4]triazin-4(3H)-one] | PDE1A selectivity (versus PDE9A2) [2, 5]: 103; PDE1B selectivity (versus PDE9A2) [3, 6]: 183
– | > 6.00 | 1 | 1 | CC1CN(c2ncccn2)CC1c1nn2c(C3CCOCC3)ncc2c(=O)[nH]1 (single isomer, unassigned; (+)) [(+)-2-((3,4-trans)-4-methyl-1-(pyrimidin-2-yl)pyrrolidin-3-yl)-7-(tetrahydro-2H-pyran-4-yl)imidazo[5,1-f][1,2,4]triazin-4(3H)-one] | –
– | – | – | – | Cc1cnccc1-c1ncc2c(=O)[nH]c(C3CN(Cc4ncccn4)CC3C)nn12 (single isomer, unassigned; (+)) [(+)-2-((3,4-trans)-4-methyl-1-(pyrimidin-2-ylmethyl)pyrrolidin-3-yl)-7-(3-methylpyridin-4-yl)imidazo[5,1-f][1,2,4]triazin-4(3H)-one] | pIC50 ([1]; 4.0 μM cGMP substrate, 1 hour at R.T.): > 6.00; PDE1A selectivity (versus PDE9A2) ([2]; ratio of IC50 values PDE1A / PDE9A2, value greater than 1 indicates greater selectivity for PDE9A2): 85; PDE1B selectivity (versus PDE9A2) ([3]; ratio of IC50 values PDE1B / PDE9A2, value greater than 1 indicates greater selectivity for PDE9A2): 63
> 6.00 | – | – | – | Cc1ccncc1-c1ncc2c(=O)[nH]c(C3CN(Cc4ncccn4)CC3C)nn12 (single isomer, unassigned; (+)) [(+)-2-((3,4-trans)-4-methyl-1-(pyrimidin-2-ylmethyl)pyrrolidin-3-yl)-7-(4-methylpyridin-3-yl)imidazo[5,1-f][1,2,4]triazin-4(3H)-one] | PDE1A selectivity (versus PDE9A2) [2, 5]: 85; PDE1B selectivity (versus PDE9A2) [3, 6]: 127
– | > 6.00 | 84 | 119 | Cc1ccccc1-c1ncc2c(=O)[nH]c(C3CN(Cc4ncccn4)CC3C)nn12 (single isomer, unassigned; (+)) [(+)-2-((3,4-trans)-4-methyl-1-(pyrimidin-2-ylmethyl)pyrrolidin-3-yl)-7-(o-tolyl)imidazo[5,1-f][1,2,4]triazin-4(3H)-one] | –
– | > 6.00 | 136 | 174 | CC1CN(Cc2ccncn2)CC1c1nn2c(C3CCOCC3)ncc2c(=O)[nH]1 (single isomer, unassigned; (+)) [(+)-2-((3,4-trans)-4-methyl-1-(pyrimidin-4-ylmethyl)pyrrolidin-3-yl)-7-(tetrahydro-2H-pyran-4-yl)imidazo[5,1-f][1,2,4]triazin-4(3H)-one] | –
– | > 6.00 | 890 | 1067 | CC1CN(Cc2ccc3ncncc3c2)CC1c1nn2c(C3CCOCC3)ncc2c(=O)[nH]1 (single isomer, unassigned; (+)) [(+)-2-((3,4-trans)-4-methyl-1-(quinazolin-6-ylmethyl)pyrrolidin-3-yl)-7-(tetrahydro-2H-pyran-4-yl)imidazo[5,1-f][1,2,4]triazin-4(3H)-one] | –
– | > 6.00 | 471 | 987 | CC1CN(Cc2ccnc3ccccc23)CC1c1nn2c(C3CCOCC3)ncc2c(=O)[nH]1 (single isomer, unassigned; (+)) [(+)-2-((3,4-trans)-4-methyl-1-(quinolin-4-ylmethyl)pyrrolidin-3-yl)-7-(tetrahydro-2H-pyran-4-yl)imidazo[5,1-f][1,2,4]triazin-4(3H)-one] | –
– | > 6.00 | 520 | 1525 | CC1CN(Cc2ccc3ncccc3c2)CC1c1nn2c(C3CCOCC3)ncc2c(=O)[nH]1 (single isomer, unassigned; (+)) [(+)-2-((3,4-trans)-4-methyl-1-(quinolin-6-ylmethyl)pyrrolidin-3-yl)-7-(tetrahydro-2H-pyran-4-yl)imidazo[5,1-f][1,2,4]triazin-4(3H)-one] | –
– | – | – | – | CC1CN(Cc2cccc3cccnc23)CC1c1nn2c(C3CCOCC3)ncc2c(=O)[nH]1 (single isomer, unassigned; (+)) [(+)-2-((3,4-trans)-4-methyl-1-(quinolin-8-ylmethyl)pyrrolidin-3-yl)-7-(tetrahydro-2H-pyran-4-yl)imidazo[5,1-f][1,2,4]triazin-4(3H)-one] | pIC50 ([1]; Table 3, 4.0 μM cGMP substrate, 1 hour at R.T.): > 6.00; PDE1A selectivity (versus PDE9A2) ([2]; ratio of IC50 values, PDE1A versus PDE9A2, value greater than 1 = greater selectivity for PDE9A2): 647; PDE1B selectivity (versus PDE9A2) ([3]; ratio of IC50 values, PDE1B versus PDE9A2, value greater than 1 = greater selectivity for PDE9A2): 673
– | > 6.00 | 453 | 1130 | CC1CN(Cc2cnc3ccccc3n2)CC1c1nn2c(C3CCOCC3)ncc2c(=O)[nH]1 (single isomer, unassigned; (+)) [(+)-2-((3,4-trans)-4-methyl-1-(quinoxalin-2-ylmethyl)pyrrolidin-3-yl)-7-(tetrahydro-2H-pyran-4-yl)imidazo[5,1-f][1,2,4]triazin-4(3H)-one] | –
> 6.00 | – | – | – | CC1CN(Cc2nccs2)CC1c1nn2c(C3CCOCC3)ncc2c(=O)[nH]1 (single isomer, unassigned; (+)) [(+)-2-((3,4-trans)-4-methyl-1-(thiazol-2-ylmethyl)pyrrolidin-3-yl)-7-(tetrahydro-2H-pyran-4-yl)imidazo[5,1-f][1,2,4]triazin-4(3H)-one] | PDE1A selectivity (versus PDE9A2) [2, 4]: 150; PDE1B selectivity (versus PDE9A2) [3, 4]: 147
